These results are taken from BindingDB's records for doi:10.1016/j.bioorg.2017.01.007 (Panjab University, 2017).

Broadly, the pIC50 is the negative decadic logarithm of the IC50, by convention in mol/L. Higher therefore signals a small IC50.

pIC50: −log10 of the molar value.

For the experiment, the target named is T1, Tyrosine-protein phosphatase non-receptor type 1 (Homo sapiens, UniProt P18031).
T1 sequence (P18031 whole entry): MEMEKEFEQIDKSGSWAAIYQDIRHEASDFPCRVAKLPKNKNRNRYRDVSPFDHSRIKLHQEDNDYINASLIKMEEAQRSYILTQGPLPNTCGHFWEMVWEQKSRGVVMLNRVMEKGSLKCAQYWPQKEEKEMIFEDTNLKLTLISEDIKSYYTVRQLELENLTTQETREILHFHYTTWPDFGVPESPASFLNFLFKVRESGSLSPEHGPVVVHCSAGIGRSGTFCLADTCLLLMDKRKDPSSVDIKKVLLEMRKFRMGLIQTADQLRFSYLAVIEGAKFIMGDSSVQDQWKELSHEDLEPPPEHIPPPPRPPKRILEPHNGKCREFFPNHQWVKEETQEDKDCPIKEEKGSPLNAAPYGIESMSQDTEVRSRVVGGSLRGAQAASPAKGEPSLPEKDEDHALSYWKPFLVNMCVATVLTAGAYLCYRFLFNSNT
The experiment can be described thus: In Vitro PTP1B Inhibition Assay. Here is the method: 10 mM stock solution (in assay buffer containing 1% DMSO) of the test compounds were prepared. Taking suitable aliquots from this stock solution, five different concentrations were made by dilutions. […] A 96 well microtiter plate was used for carrying out the assay using 10 mM DMSO as control. The reaction was carried out in 96 well, flatbottomed microtiter plates at 10 mM concentration using DMSO as control.
For the molecule `COc1cc(/C=C2\SC(=O)NC2=O)ccc1OS(=O)(=O)c1ccc(Cl)cc1` [(Z)-4-((2,4-dioxothiazolidin-5-ylidene)methyl)-2-methoxyphenyl-4-chlorobenzenesulfonate (17)], the pIC50 was 4.60.

The molecule `COc1cc(/C=C2\SC(=O)NC2=O)ccc1OS(=O)(=O)c1ccc2ccccc2c1` [(Z)-4-((2,4-dioxothiazolidin-5-ylidene)methyl)-2-methoxyphenylnaphthalene-2-sulfonate (21)] showed a pIC50 of 4.21.

`COc1cc(/C=C2\SC(=O)NC2=O)ccc1OS(C)(=O)=O` [(Z)-4-((2,4-dioxothiazolidin-5-ylidene)methyl)-2-methoxyphenylmethane sulfonate (16)] had a pIC50 of 5.06.

`COc1cc(/C=C2\SC(=O)NC2=O)ccc1OS(=O)(=O)c1ccccc1[N+](=O)[O-]` [(Z)-4-((2,4-dioxothiazolidin-5-ylidene)methyl)-2-methoxyphenyl-2-nitrobenzenesulfonate (19)] had a pIC50 of 4.30.

In turn, `COc1cc(/C=C2\SC(=O)NC2=O)ccc1OS(=O)(=O)c1ccc(C)cc1` [(Z)-4-((2,4-dioxothiazolidin-5-ylidene)methyl)-2-methoxyphenyl-4-methylbenzenesulfonate (12)] had a pIC50 of 4.72.

Turning to `COc1cc(/C=C2\SC(=O)NC2=O)ccc1OS(=O)(=O)Cc1ccccc1` [(Z)-4-((2,4-dioxothiazolidin-5-ylidene)methyl)-2-methoxyphenyl phenylmethanesulfonate (20)], the pIC50 is 4.22.

In the case of `COc1cc(/C=C2\SC(=O)NC2=O)ccc1OS(=O)(=O)c1ccc(Br)cc1` [(Z)-4-((2,4-dioxothiazolidin-5-ylidene)methyl)-2-methoxyphenyl-4-bromobenzenesulfonate (18)], the pIC50 is 4.66.

Take `COc1ccc(S(=O)(=O)Oc2ccc(/C=C3\SC(=O)NC3=O)cc2OC)cc1` [(Z)-4-((2,4-dioxothiazolidin-5-ylidene)methyl)-2-methoxyphenyl-4-methoxybenzene sulfonate (14)]: the pIC50 is 4.55.

Turning to `COc1cc(/C=C2\SC(=O)NC2=O)ccc1OS(=O)(=O)c1c(C)cc(C)cc1C` [(Z)-4-((2,4-dioxothiazolidin-5-ylidene)methyl)-2-methoxyphenyl-2,4,6-trimethylbenzenesulphonate (15)], the pIC50 is 4.57.

Consider `COc1cc(/C=C2\SC(=O)NC2=O)ccc1OS(=O)(=O)c1ccccc1` [(Z)-4-((2,4-dioxothiazolidin-5-ylidene)methyl)-2-methoxyphenylbenzenesulfonate (13)], for which the pIC50 was 5.14.
